# Measured values: ChEMBL document CHEMBL1159277, “Sesquiterpene/quinol from a New Zealand liverwort, Riccardia crassa” (J Nat Prod, 1995)
# Calls of active or inactive are those of the source. The calls are words filed in the database; no cut-off is given here.
# What was measured:
# P388 = assay: Cytotoxicity against mouse P388 cells; type: functional, cell-based
# [1] = test system: Trichophyton mentagrophytes; assay: Antifungal activity against Trichophyton mentagrophytes at 60 ug/disk; type: functional, organism-based
# Candida albicans = assay: Antifungal activity against Candida albicans at 60 ug/disk; type: functional, organism-based
smiles,measurement,setting,value
CC(C)=C/C=C/[C@@]1(C)CCC[C@]2(C)Oc3ccc(O)cc3C[C@@H]12 [RICCARDIPHENOL C],IC50,P388,> 25 µg/mL
same,Activity,[1],inactive
same,Activity,Candida albicans,inactive
